Results as given in article PMC3541548 (Bioorganic & medicinal chemistry letters, 2012).
Where two headings read alike, the source gives them in different places.

What was measured:
in vitro = conditions: human, microsomes
Human sEH = target: T1, Human sEH (Homo sapiens, UniProt P34913); format: biochemical; conditions: for fold lower potency against sEH: compared to 2-naphthalene analog 7-38
T1 sequence (P34913 1-555): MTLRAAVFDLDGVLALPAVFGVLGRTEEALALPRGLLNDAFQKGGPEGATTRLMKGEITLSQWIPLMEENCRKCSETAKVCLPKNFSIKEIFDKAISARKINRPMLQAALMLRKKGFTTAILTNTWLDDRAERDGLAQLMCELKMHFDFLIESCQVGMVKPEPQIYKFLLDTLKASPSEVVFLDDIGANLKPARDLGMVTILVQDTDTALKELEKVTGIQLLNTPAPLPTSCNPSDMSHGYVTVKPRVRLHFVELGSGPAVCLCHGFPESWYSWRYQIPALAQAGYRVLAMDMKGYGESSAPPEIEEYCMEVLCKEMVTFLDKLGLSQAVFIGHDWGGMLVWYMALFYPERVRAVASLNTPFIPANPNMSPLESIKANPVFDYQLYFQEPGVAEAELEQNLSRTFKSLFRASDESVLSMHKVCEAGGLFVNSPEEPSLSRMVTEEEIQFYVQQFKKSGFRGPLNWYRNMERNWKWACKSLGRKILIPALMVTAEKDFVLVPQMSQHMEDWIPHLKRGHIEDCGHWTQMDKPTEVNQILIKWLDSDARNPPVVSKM

[1] = compared to phenyl compound 7-12

Structure (SMILES): Cc1ccc(S(=O)(=O)N2CCC(C(=O)NC3CCCC3)CC2)c(C)c1 [Compound 7-3]
- CLint scaled at 1.5 h (in vitro): 90 mL/min/kg

Structure (SMILES): Cc1ccc(S(=O)(=O)N2CCC(C(=O)NC34CC5CC(CC(C5)C3)C4)CC2)c(C)c1 [Compound 7-6]
- CLint scaled at 1.5 h (in vitro): 90 mL/min/kg

Structure (SMILES): Cc1ccc(S(=O)(=O)N2CCC(C(=O)Nc3ccccc3O)CC2)c(C)c1 [Compound 7-9]
- CLint scaled at 1.5 h (in vitro): 520 mL/min/kg

Structure (SMILES): COC(=O)c1ccc(NC(=O)C2CCN(S(=O)(=O)c3ccc(C)cc3C)CC2)cc1 [Compound 7-11]
- CLint scaled at 1.5 h (in vitro): 340 mL/min/kg

Structure (SMILES): Cc1ccc(S(=O)(=O)N2CCC(C(=O)Nc3ccc(OC(F)(F)F)cc3)CC2)c(C)c1 [Compound 7-12]
- fold drop in potency against the human sEH (Human sEH; compared to cycloalkyl lead compound 2): 15 fold

Structure (SMILES): Cc1ccc(S(=O)(=O)N2CCC(C(=O)Nc3ccc(N4CCOCC4)cc3)CC2)c(C)c1 [Compound 7-14]
- fold decrease in potency (Human sEH; [1]): 10 fold

Structure (SMILES): Cc1ccc(S(=O)(=O)N2CCC(C(=O)Nc3cccc(C(F)(F)F)c3)CC2)c(C)c1 [Compound 7-16]
- fold decrease in potency (Human sEH; [1]): 30 fold

Structure (SMILES): Cc1ccc(S(=O)(=O)N2CCC(C(=O)Nc3ccc(Cl)c(Cl)c3)CC2)c(C)c1 [Compound 7-19]
- fold decrease in potency (Human sEH; [1]): 2 fold

Structure (SMILES): Cc1ccc(S(=O)(=O)N2CCC(C(=O)Nc3cccc4cccnc34)CC2)c(C)c1 [Compound 7-20]
- CLint scaled at 1.5 h (in vitro): 120 mL/min/kg

Structure (SMILES): Cc1ccc(S(=O)(=O)N2CCC(C(=O)Nc3ccc4c(c3)OCO4)CC2)c(C)c1 [Compound 7-23]
- fold increase in potency (lower IC50) (Human sEH; [1]): 4 fold
- in vitro metabolic stability in human liver microsomes (in words): intermediate metabolic profiles
- CLint scaled at 1.5 h (in vitro): 28 mL/min/kg

Structure (SMILES): Cc1ccc(S(=O)(=O)N2CCC(C(=O)NC3CC3)CC2)c(C)c1 [Compound 7-24]
- in vitro metabolic stability in human liver microsomes (in words): intermediate metabolic profiles
- CLint scaled at 1.5 h (in vitro): 7 mL/min/kg

Structure (SMILES): Cc1ccc(S(=O)(=O)N2CCC(C(=O)Nc3ccc([N+](=O)[O-])cc3)CC2)c(C)c1 [Compound 7-35]
- fold increase in potency (lower IC50) (Human sEH; [1]): 2 fold

Structure (SMILES): Cc1ccc(S(=O)(=O)N2CCC(C(=O)Nc3ccc(C(C)C)cc3)CC2)c(C)c1 [Compound 7-37]
- fold increase in potency (lower IC50) (Human sEH): 3 fold
- CLint scaled at 1.5 h (in vitro): 50 mL/min/kg

Structure (SMILES): Cc1ccc(S(=O)(=O)N2CCC(C(=O)Nc3ccc(S(=O)(=O)C(F)(F)F)cc3)CC2)c(C)c1 [Compound 7-38]
- CLint scaled at 1.5 h (in vitro): 35 mL/min/kg

Structure (SMILES): Cc1ccc(S(=O)(=O)N2CCC(C(=O)Nc3ccc(F)cc3)CC2)c(C)c1 [Compound 7-39]
- fold lower potency against sEH (Human sEH): 5 fold

Structure (SMILES): Cc1ccc(S(=O)(=O)N2CCC(C(=O)Nc3ccc(Br)cc3)CC2)c(C)c1 [Compound 7-40]
- fold lower potency against sEH (Human sEH): 30 fold

Structure (SMILES): Cc1ccc(S(=O)(=O)N2CCC(C(=O)Nc3ccc(Cl)c(C(F)(F)F)c3)CC2)c(C)c1 [Compound 7-41]
- fold lower potency against sEH (Human sEH): 50 fold

Structure (SMILES): Cc1ccc(S(=O)(=O)N2CCC(C(=O)Nc3ccc4ccccc4c3)CC2)c(C)c1 [Compound 7-42]
- fold lower potency against sEH (Human sEH): 180 fold
- CLint scaled at 1.5 h (in vitro): 140 mL/min/kg

Structure (SMILES): Cc1ccc(S(=O)(=O)N2CCC(C(=O)Nc3cccc4cnccc34)CC2)c(C)c1 [Compound 7-44]
- fold lower potency against sEH (Human sEH): 15 fold
- CLint scaled at 1.5 h (in vitro): 5.6 mL/min/kg

Structure (SMILES): Cc1ccc(S(=O)(=O)N2CCC(C(=O)Nc3ccc4cc(C(=O)O)ccc4c3)CC2)c(C)c1 [Compound 7-45]
- CLint scaled at 1.5 h (in vitro): 35 mL/min/kg
